Earlier results in US20100112105A1, “Antimicrobial efficacy of aframomum Melegueta extract against propionibacterium acnes” (ACCESS BUSINESS GROUP INTERNATIONAL LLC, priority 2008, published 2010).

Test system: Mycobacterium chelonei, M. intracellulare, M. smegmatis, and M. xenopi
Conditions: Galal, Pharmaceutical Biology 1996

Structure (SMILES) | activity against mycobacteria
CCCCC/C=C/C(=O)CCc1ccc(O)c(OC)c1 [6-shogaol] | active
COc1cc(CCC(C)=O)ccc1O [gingerone] | inactive
CCCCCCCC(=O)CCc1ccc(O)c(OC)c1 [6-paradol] | active
